Test results from patent EP1431294A1, “VASCULAR WALL-SELECTIVE ACAT INHIBITOR” (Kowa Company Ltd., priority 2001, dated 2003).
Blank lines part the entries; values can stand above or below the molecule they belong to.

Experiments:
[1] = system: lipid-loaded model of F1B hamster; assay: Arteriosclerotic model animal test (lipid-loaded F1B hamster); details: for CE/FC Adrenal Gland / CE/FC Lipid Accumulation to Artery / CE/FC Liver / CE/FC Small Intestine: ratio to control (1.0)
Procedure: Male hamsters of a Bio F1B strain purchased from Nippon Charles River were randomly grouped so that each group comprised six. As from eight weeks age, they were loaded with a high-fat feed (0.3% of cholesterol and 10% of coconut oil) for ten weeks while the drug was administered by mixing with the feed. After ten weeks, blood was collected and cholesterol in plasma was measured. Further, arterywas excised after fixingbyperfusion with a 10% formalin solution. This was incised, lipid which was accumulated in the artery was stained with Oil Red O and the stained area was measured using an image analyzer.
A high-fat feed (0.3% of cholesterol and 10% of coconut oil) was prepared by way of compounding ratio of cholesterol : coconut oil : feed (CE-2) = 0.03:1:9. Incidentally, a high-fat feed was given to the control group and the administered period was 10 weeks.
Hamster under a non-fasted state was anesthetized, subj ected to an abdominal section to expose the abdominal artery and about 2.5 mL of blood were collected. The collected blood was centrifuged at 3, 000 rpm for 15 minutes to collect the plasma and then total cholesterol (TC) and free cholesterol (FC) in plasma were determined by a Cholesterol E-Test Wako (a cholesterol oxidase DAOS method) and a Free Cholesterol E-Test Wako (a cholesterol oxidase DAOS method), respectively.
About 500 mg of liver, small intestine and adrenal body were excised and washed with a physiological saline solution and lipid concentration in the tissues was measured. In the measurement, 10 mL of chloroform : methanol (2:1) as an extracting solution for lipid in the tissue were placed in the liver and the small intestine, homogenized at 3,000 rpm using a Polytron Homogenizer PT 3100 and allowed to stand at 4°C for one night. The extract was centrifuged at 1,500 rpm for 15 minutes, 0.2 mL of the supernatant liquid was evaporated to dryness using a vacuum pump, the residue was dissolved in 50 µL of isopropanol and each lipid was subjected to the same kits whereupon TC and FC were quantified. With regard to the adrenal body, it was finely cut using scissors and 0.5 mL of chloroform : methanol (2:1) was added thereto followed by being allowed to stand at 4°C for one night. That was centrifuged at 1,500 rpm for 15 minutes, 0.2 mL of the supernatant liquid was evaporated to dryness using a vacuum pump, the residue was dissolved in 50 µL of isopropanol and each lipid was subjected to the same kits whereupon TC and FC were quantified.
With regard to the total cholesterol (TC) in plasma in the group to which the drug was administered, the relative ratio to TC in the control group was used as an indicator while, with regard to the tissue, difference between TC and FC was defined as CE (cholesterol ester) and the lipid-constituting ratio, CE/FC, in each organ was determined whereupon their relative ratio to each control was calculated and used as an indicator. Thus, in those indicators, the control group was defined as 100% and the calculation using the following formula was carried out so as to use a plasma TC lowering action by ACAT inhibitory action to liver and small intestine of the group to which the drug was administered as an indicator and also to use the variation of CE/FC ratio by an ACAT inhibitory action to each organ as an indicator. Indicator (%) for total cholesterol in plasma = [(TC of drug-administered group)/(TC of the control group)] × 100 [formula] Indicator (%) for lipid constituting ratio in each organ = [(CE/FC of drug-administered group)/(CE/FC of the control group)] × 100 [formula]
After collection of the blood, a 18-G injection needle was inserted into apex and perfused with a physiological saline solution (120 mmHg) for about 5minutes. It was further perfused with a 10% neutral formalin buffer (120 mmHg) for about 5 minutes. Bulbar and thoracic artery was excised and fixed in a 10% formalin buffer.

ACAT [2] = biological target: T1, ACAT (Mus musculus, UniProt Q61263); assay: ACAT inhibitory activity test in J774 cells (anti-foaming action); format: cell-based; details: for IC50: J774 cells, 25-hydroxycholesterol 10 µg/mL, 18 hours, cholesterol ester per protein
T1 construct: J774 cells or HepG2 cells were sown on a 24-well plate; endogenous in cells; host or cells: J774 cells
T1 sequence (Q61263 1-540): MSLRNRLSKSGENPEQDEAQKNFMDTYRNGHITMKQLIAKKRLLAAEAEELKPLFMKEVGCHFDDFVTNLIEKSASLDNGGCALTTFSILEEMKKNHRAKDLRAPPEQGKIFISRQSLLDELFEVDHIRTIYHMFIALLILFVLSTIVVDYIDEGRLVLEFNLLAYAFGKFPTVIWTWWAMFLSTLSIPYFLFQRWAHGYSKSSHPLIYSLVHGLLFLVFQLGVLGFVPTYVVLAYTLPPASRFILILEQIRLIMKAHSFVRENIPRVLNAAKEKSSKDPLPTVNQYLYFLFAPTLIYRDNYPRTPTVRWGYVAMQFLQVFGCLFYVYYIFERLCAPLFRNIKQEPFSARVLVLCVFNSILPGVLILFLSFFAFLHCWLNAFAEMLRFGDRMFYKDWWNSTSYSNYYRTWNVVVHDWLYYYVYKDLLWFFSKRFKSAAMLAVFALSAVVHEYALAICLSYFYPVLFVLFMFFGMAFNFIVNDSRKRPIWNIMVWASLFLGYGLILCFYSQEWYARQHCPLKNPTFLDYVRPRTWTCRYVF
Procedure: (§1) J774 cells or HepG2 cells were sown on a 24-well plate and incubation was carried out at 37°C for 24 hours in a 5% CO2 incubator using a Dulbecco's modified Eagle's medium for J774 cells and an Eagle's minimum essential medium for HepG2 cells (where both media contained 10% of fetal bovine serum). […] The medium was taken out, washed with PBS twice, extracted with 1.5 mL of hexane-isopropanol (3:2) and concentrated to dryness. The extract was dissolved in isopropanol containing 0.2 mL of 10% Triton X-100 and then total cholesterol (TC) and free cholesterol (FC) were determined by a Cholesterol E Test Wako (Wako Pure Chemical) and a Free Cholesterol E Test Wako (Wako Pure Chemical), respectively. The residue of the cell after extraction was solubilized with 0.25 mL of 2N NaOH at 37°C for 30 minutes and protein was determined by a BCA Protein Assay Reagent (Pierce). From the differencebetween TC and FC, amount of cholesterolester per protein was calculated and, from the comparative calculation with the control, IC50 value was determined.

ACAT [3] = assay: ACAT inhibitory activity test in HepG2 cells; format: cell-based; details: 25-hydroxycholesterol 10 µg/mL, 18 hours, cholesterol ester per protein
Procedure: as §1

[4] = Oral absorption test in rats under a fed condition (plasma concentration); format: in vivo; details: compared with the compound of Example 1; rats, 30 mg/kg
Procedure: A solution of the compound of the present invention (dissolved in a mixture of water : PEG 400 = 1:4) or a suspension in 0.5% methyl cellulose (MC) was compulsorily administered per os at. the dose of 30 mg/kg to three rats under a fed condition. Blood after the administration was periodically collected and its concentration in plasma was measured.
The organic layer (upper layer) was collected, the solvent was evaporated in a nitrogen stream, the residue was dissolved in 0.2 mL of a mobile phase (refer to the following) and 80 µL thereof were measured under the following analytical conditions.
The organic layer was collected, the solvent was evaporated in a nitrogen stream, the residue was dissolved in 0.2 mL of a mobile phase (refer to the following) and 80 µL thereof were measured under the following condition for high-performance liquid chromatography. Condition for detection: • (Detector: Single-stage quadrupole mass spectrometer • Ionization method: Atmospheric pressure chemical ionization method • Temperature of nebulizer: 475°C • Corona voltage: 3 kV • Monitoring ion: m/z 569 (hydrogen addition ion of the compound of Example 78), 549 (hydrogen addition ion of the compound of Example 85)) Condition for separation: • (Column: Symmetry RP8 manufactured by Waters (3.0 mmφ × 150 mm) • Temperature of column: 45°C • Mobile phase: a solution where 0.1% ammonium formate (pH 4)/methanol/acetonitrile are mixed in […] • Flow rate: 0.8 mL/min)
To 150 µL of plasma were added a 0.1 mol/L aqueous solution of sodium hydroxide and 0.2 mL of an analogous compound (500 ng/mL of the compound of Example 28 of the Japanese Patent Application No. 8/158,743, i.e. 8-(benzimidazol-2-ylthio)-N-(2,6-diisopropylphenyl)octanamide as an internal standard, stirred and extracted with 6 mL of an isopropanol/hexane (5: 95) solution. The organic layer was collected, the solvent was evaporated in a nitrogen stream, the residue was dissolved in 0.2 mL of a mobile phase (refer to the following) and 80 µL thereof were measured under the following condition for high-performance liquid chromatography.

[5] = as above; format: in vivo; details: rat, 30 mg/kg
[6] = dose 10 mg/kg in feed, 10 weeks
[7] = dose 30 mg/kg in feed, 10 weeks

Structure (SMILES): CSc1cc(C)nc(SC)c1NC(=O)CN1CCN(CCSc2nc3ccccc3o2)CC1 [Example 24, N-[2,4-bis (methylthio) -6-methyl-3-pyridyl]-2-[4-[2-(benzoxazol-2-ylthio)ethyl]-piperazin-1-yl]acetamide]
dose from which suppression of lipid accumulation was effective ([1]; F1B hamsters, drug in high-fat feed, 10 weeks): ≥ 3 mg/kg | plasma cholesterol at doses effective in suppression of lipid accumulation ([1]; F1B hamsters, total cholesterol in plasma relative to control, Dunnett's test): accompanied by a significant decrease of plasma cholesterol | CE/FC Adrenal Gland ([1]; dose 1 mg/kg in feed, 10 weeks): 0.6 | CE/FC Lipid Accumulation to Artery ([1]; dose 1 mg/kg in feed, 10 weeks): 0.91 | CE/FC Liver ([1]; dose 1 mg/kg in feed, 10 weeks): 0.89 | CE/FC Small Intestine ([1]; dose 1 mg/kg in feed, 10 weeks): 0.79 | CE/FC Adrenal Gland ([1]; dose 3 mg/kg in feed, 10 weeks): 0.34 | CE/FC Lipid Accumulation to Artery ([1]; dose 3 mg/kg in feed, 10 weeks): 0.37 | CE/FC Liver ([1]; dose 3 mg/kg in feed, 10 weeks): 0.36 | CE/FC Small Intestine ([1]; dose 3 mg/kg in feed, 10 weeks): 0.45 | CE/FC Adrenal Gland [1, 6]: 0.11 | CE/FC Lipid Accumulation to Artery [1, 6]: 0.32 | CE/FC Liver [1, 6]: 0.16 | CE/FC Small Intestine [1, 6]: 0.21 | CE/FC Adrenal Gland [1, 7]: 0.11 | CE/FC Lipid Accumulation to Artery [1, 7]: 0.28 | CE/FC Liver [1, 7]: 0.09 | CE/FC Small Intestine [1, 7]: 0.13

Structure (SMILES): CCOCCOc1cc(C(C)C)c(NC(=O)CN2CCN(CCSc3nc4ccccc4o3)CC2)c(C(C)C)c1 [Example 78, 2-[4-[2-(benzoxazol-2-ylthio)ethyl]piperazin-1-yl]-N-[2,6-diisopropyl-4-(2-ethoxyethyl)oxyphenyl]acetamide]
IC50 (ACAT [2]): 14 nM | AUC(0-inf) ([5]; medium PEG 400:DMSO = 5:1): 29.8 ng·h/mL | Cmax ([5]; medium PEG 400:DMSO = 5:1): 14.8 ng/mL

The remaining lines, values ahead:

IC50 (ACAT [2]): 130 nM | IC50 (ACAT [3]): 780 nM | improving effect in oral absorption in terms of Cmax value [4]: about 4.3 fold | AUC(0-inf) ([5]; medium 0.05N (Aq HCl)): 1100 ng·h/mL | Cmax ([5]; medium 0.05N (Aq HCl)): 470 ng/mL
Structure (SMILES): CC(C)c1cc(O)cc(C(C)C)c1NC(=O)CN1CCN(CCSc2nc3ccccc3o2)CC1 [Example 72, 2-[4-[2-(benzoxazol-2-ylthio)ethyl]piperazin-1-yl]-N-(2,6-diisopropyl-4-hydroxyphenyl) acetamide]

macrophage selectivity (IC50 (HepG2)/IC50 (J774)) (ACAT [2]): not less than 96 fold | IC50 (ACAT [2]): 100 nM | IC50 (ACAT [3]): 10000 nM
Structure (SMILES): COc1cc(C(C)C)c(NC(=O)CN2CCN(CCSc3nc4ccccc4o3)CC2)c(C(C)C)c1 [Example 75, 2-[4-[2-(benzoxazol-2-ylthio)ethyl]piperazin-1-yl]-N-(2,6-diisopropyl-4-methoxyphenyl)acetamide]

IC50 (ACAT [2]): 19 nM | IC50 (ACAT [3]): 680 nM | AUC(0-inf) ([5]; medium PEG 400): 71.8 ng·h/mL | Cmax ([5]; medium PEG 400): 17.6 ng/mL
Structure (SMILES): CC(C)c1cccc(C(C)C)c1NC(=O)CN1CCN(CCSc2nc3cccc(C(F)(F)F)c3o2)CC1 [Example 85, 2-[4-[2-(7-trifluoromethylbenzoxazol-2-ylthio)ethyl]piperazin-1-yl]-N-(2,6-diisopropylphenyl)acetamide]
